Assay results: US20060051295A1, “Estrogen receptor interaction with a transcription factor” (priority 2002, published 2006)

Tests used:
[1] = tested on: cRel + ER beta; test: Transrepression of c-Rel induced reporters, U-2 OS co-transfected with ERβ; type: cell-based, human
Procedure: Next was determined whether transrepression by ER is limited to particular NF-κB types, such as c-Rel or RelA, by overexpression of these NF-κB proteins in U-2 OS cells (Table 2). Again, the promoter-reporter constructs for the E-selectin, ICAM and VCAM genes were used in these experiments. Significant activation of these reporters by overexpression of c-Rel was observed. This activation was strongly and reproducibly transrepressed by both ERα and ERβ (Table 2).
Table 2. Estrogen-dependent transrepression of the promoters from E-selectin, VCAM and ICAM and a synthetic NF-κB responsive reporter, measured as the amount of luciferase activity. Transient (co-)transfections of ERα (or ERβ) and reporter were performed in U-2 OS cells. Reporter activity was induced by cellular exposure to Il-1β or by co-transfection of the NF-κB genes c-Rel or RelA. […] For detailed information on the composition of the reporters used, see appendix 1. The hyphen (-) in the table indicates the test with cells without transfected cDNA and no additives in medium; n.d. means: not determined.
(§1) For transient transfections, cells were seeded in 6-well plates (2.10^5 cells/well). After two or three days the cells were transfected with reporter, expression vectors and β-galactosidase control vector. Two different experimental settings were used. For testing transrepression of IL-1β induced promoter activity, cells were transfected with 1 μg reporter construct, 1 μg expression vector (containing either ERα, ERβ or GR), and 0.25 μg of β-galactosidase control plasmid. For testing transrepression in combination with c-Rel or ReLA overexpression, cells were transfected with 1 μg reporter construct, 1 μg expression vector (containing either ERα, ERβ or GR) and 0.1 or 1.0 μg expression vector containing c-Rel or RelA and 0.25 μg of β-galactosidase control vector. Equivalent amounts of DNA were obtained by adding the appropriate expression vector that lacks an insert. Transient transfection was performed using lipofectin reagent (Life Technologies). […] The transfected cells were incubated overnight with test compounds prior to cell lysis. Measurement of luciferase and P-galactosidase activity were performed using respectively the luciferase assay system (Promega) and Galacto-light plus (Tropix) according to the manufacturers' protocols and measured on the Victor 1420 multilabel counter, Wallac. Detection of β-galactosidase activity was used as a control for transfection efficiency.

[2] = tested on: ERα and c-Rel; test: NF-κB-responsive reporters in COS cells transfected with ERα and c-Rel; type: cell-based, human; settings: COS cells (B), ERα + cRel transfected
From the text: This example describes an assay, based on the E-selectin or VCAM promoter in combination with ERα in the T24/ECV cell line. Note that for the ER/NF-κB transrepression assay the ECV304 cell line was used, which was believed to be the only endothelial cell line available that was suitable for producing stable ERα expressing clones. At a later stage ATCC reported that the ECV304 cells were no endothelial cells but, instead, were T24 bladder carcinoma cells. In order to enhance the cytokine induction and amount of repression by estrogens, multiple copies of NF-κB responsive regions of the E-Selectin and VCAM promoters were used to construct new reporters named ELAM1a, ELAM2, ELAM-HMG, VCAM1-2, VCAM2, and VCAM3 (for reporter details see appendix 1).
ECV304-ERα cells stably express ERα and endogenous c-Rel, whereas COS cells were transiently transfected with ERα, and, where indicated, c-Rel. Both cell types were co-transfected with the indicated E-selectin (ELAM) or VCAM promoter derived reporters.
Human osteosarcoma U-2 OS (HTB-96), monkey kidney COS-1 (CRL-1650) and human ECV304 (CRL-1998) cells have been obtained from ATCC (American Type Culture collection). ECV304 cells were sold by ATCC as human endothelial cells, however at a later stage ATCC informed us that this cell line was in fact the human bladder epithelial carcinoma cell line T24. Therefore, these cells are called T24/ECV in this report. ECV304/T24(-ERα), U-2 OS and COS-7 cells were grown in a 1:1 mixture of phenol red free Dulbecco's modified medium (DMEM) and Ham's F12 medium (=M505), supplemented with 10% fetal calf serum (FCS). Experiments were performed in M505+10% FCTS (fetal calf serum treated with dextran-coated charcoal to deplete serum from steroid activity).
The six NF-κB responsive reporters pHGL3-ELAM 1a, pHGL3-ELAM 2, pHGL3-ELAM HMG, pHGL3-VCAM 1-2, pHGL3-VCAM 2 and pHGL3-VCAM 3 (plasmid nr. 1921-1926 respectively) were constructed by ligating annealed primers in the Kpn I and Sac I sites of pHGL3-TATA. The primers were based on the NF-κB-RE sequences in the ELAM and the VCAM promoter (see Appendix 1). Several copies of the NF-κB-RE's were cloned in order the gain a higher absolute luciferase signal. The ELAM HMG construct contains a double repeat, while the other constructs contain three NF-κB -RE's. For primer and reporter sequences, see appendix 1.
as §1, with “Wallac.” for “Wallac. Detection of β-galactosidase activity was used as a control for transfection efficiency.”

[3] = tested on: VCAM gene expression; test: Rabbit atherogenic diet model, VCAM mRNA in aorta bow (RNase protection)

SMILES: C[C@]12CC[C@@H]3c4ccc(O)cc4CC[C@H]3[C@@H]1CC[C@@H]2O [Org E2, 17β-estradiol]
- luciferase activity, ELAM+ reporter [1]: 3708
- luciferase activity, ELAM− reporter [1]: 1495
- luciferase activity, ICAM reporter [1]: 1611
- luciferase activity, VCAM reporter [1]: 882
- luciferase activity, ELAM1a reporter [2]: 7390 cps
- luciferase activity, ELAM2 reporter [2]: 6223 cps
- luciferase activity, ELAM-HMG reporter [2]: 61571 cps
- luciferase activity, ELAM− reporter [2]: 90035 cps
- luciferase activity, VCAM1-2 reporter [2]: 9107 cps
- luciferase activity, VCAM2 reporter [2]: 4783 cps
- luciferase activity, VCAM3 reporter [2]: 10781 cps
- luciferase activity, VCAM reporter [2]: 51283 cps
- VCAM mRNA level (RNase protection, divided by GAPDH signal) ([3]; diet 2 weeks, 4 hours after 3 μg/kg s.c.): 0.004949
- VCAM mRNA level (RNase protection, divided by GAPDH signal) ([3]; diet 2 weeks, 12 hours after 3 μg/kg s.c.): 0.01033
- VCAM mRNA level (RNase protection, divided by GAPDH signal) ([3]; diet 4 weeks, 4 hours after 3 μg/kg s.c.): 0.005097
- VCAM mRNA level (RNase protection, divided by GAPDH signal) ([3]; diet 4 weeks, 12 hours after 3 μg/kg s.c.): 0.006225
- VCAM mRNA level (RNase protection, divided by GAPDH signal) ([3]; diet 8 weeks, 4 hours after 3 μg/kg s.c.): 0.007292
- VCAM mRNA level (RNase protection, divided by GAPDH signal) ([3]; diet 8 weeks, 12 hours after 3 μg/kg s.c.): 0.009832
- VCAM mRNA level (RNase protection, divided by GAPDH signal) ([3]; diet 18 weeks, 4 hours after 3 μg/kg s.c.): 0.0345
- VCAM mRNA level (RNase protection, divided by GAPDH signal) ([3]; diet 18 weeks, 12 hours after 3 μg/kg s.c.): 0.02017
